Patent publication US9926281B2 (priority 2014, dated 2018)

Experiments:
human ADAMTS-5 = human ADAMTS-5 (Homo sapiens (Human), UniProt Q9UNA0); details: read-out: hADAMTS-5 potency IC50
Protocol: Finally, the fluorescence is read on the Envision (Perkin Elmer) after an incubation of 90 min at 37° C.

human TACE = human TACE (Homo sapiens (Human), UniProt P78536); details: read-out: TACE potency IC50
human MMP13 = human MMP13 (Homo sapiens (Human), UniProt P45452); details: read-out: hMMP-13 potency IC50
Protocol: Human MMP13 is preactivated by incubated the enzyme in the same buffer complemented with 1 mM freshly prepared p-Aminophenylmercuric acetate (AMPA) for 1 hour at 37° C.

rnADAMTS-5 (1-564-6H) = rnADAMTS-5 (1-564-6H) (Rattus norvegicus, UniProt Q6TY19); details: read-out: Rat ADAMTS-5 potency IC50
human MMP14 = human MMP14 (Homo sapiens (Human), UniProt P50281); details: read-out: hMMP-14 potency IC50

Sequence of human TACE (P78536 whole entry, looked up, change not shown): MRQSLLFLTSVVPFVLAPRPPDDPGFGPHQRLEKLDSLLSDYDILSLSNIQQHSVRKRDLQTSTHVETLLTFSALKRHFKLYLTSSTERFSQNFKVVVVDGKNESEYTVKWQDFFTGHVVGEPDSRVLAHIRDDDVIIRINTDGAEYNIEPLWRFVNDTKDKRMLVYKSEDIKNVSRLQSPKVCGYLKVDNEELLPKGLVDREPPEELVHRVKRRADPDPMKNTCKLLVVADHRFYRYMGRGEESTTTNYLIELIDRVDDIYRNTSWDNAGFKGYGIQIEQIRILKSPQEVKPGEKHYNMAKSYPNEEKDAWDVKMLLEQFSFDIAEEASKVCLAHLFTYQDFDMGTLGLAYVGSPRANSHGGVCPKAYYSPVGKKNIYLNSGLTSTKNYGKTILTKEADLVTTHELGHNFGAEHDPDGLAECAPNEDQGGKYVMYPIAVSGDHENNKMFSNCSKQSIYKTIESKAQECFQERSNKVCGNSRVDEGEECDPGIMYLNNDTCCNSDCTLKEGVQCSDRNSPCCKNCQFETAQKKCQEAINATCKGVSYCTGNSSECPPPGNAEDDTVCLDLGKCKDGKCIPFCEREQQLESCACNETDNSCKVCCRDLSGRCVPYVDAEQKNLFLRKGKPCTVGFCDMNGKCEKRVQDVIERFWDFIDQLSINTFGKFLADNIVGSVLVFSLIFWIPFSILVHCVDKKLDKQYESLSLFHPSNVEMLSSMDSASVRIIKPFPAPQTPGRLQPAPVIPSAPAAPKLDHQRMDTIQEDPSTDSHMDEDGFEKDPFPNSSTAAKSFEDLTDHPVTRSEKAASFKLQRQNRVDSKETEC
Sequence of human ADAMTS-5 (Q9UNA0 262-930): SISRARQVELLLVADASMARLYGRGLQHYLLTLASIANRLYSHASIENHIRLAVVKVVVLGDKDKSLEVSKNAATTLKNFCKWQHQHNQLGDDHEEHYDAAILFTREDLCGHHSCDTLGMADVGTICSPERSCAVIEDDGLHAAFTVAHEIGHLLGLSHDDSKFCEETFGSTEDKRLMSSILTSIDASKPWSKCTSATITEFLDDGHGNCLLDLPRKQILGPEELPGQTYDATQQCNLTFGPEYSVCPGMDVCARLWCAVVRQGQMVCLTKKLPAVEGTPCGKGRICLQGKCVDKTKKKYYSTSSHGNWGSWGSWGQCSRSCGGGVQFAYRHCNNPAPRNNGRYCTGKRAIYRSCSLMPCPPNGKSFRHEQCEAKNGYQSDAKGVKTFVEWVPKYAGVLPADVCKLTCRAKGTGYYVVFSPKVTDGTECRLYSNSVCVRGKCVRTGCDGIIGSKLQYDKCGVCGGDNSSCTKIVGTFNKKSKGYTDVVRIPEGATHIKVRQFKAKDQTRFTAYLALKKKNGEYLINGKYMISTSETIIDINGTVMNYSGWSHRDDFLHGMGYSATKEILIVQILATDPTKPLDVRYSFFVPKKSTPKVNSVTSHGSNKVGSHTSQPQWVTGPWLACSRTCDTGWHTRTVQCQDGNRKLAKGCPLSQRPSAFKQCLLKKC

Row | Compound | IC50 (human ADAMTS-5) [nM] | IC50 (human TACE) [nM] | IC50 (human MMP13) [nM] | IC50 (rnADAMTS-5 (1-564-6H)) [nM] | IC50 (human MMP14) [nM]
1 | CC(CC1(CCS(C)(=O)=O)NC(=O)NC1=O)C(=O)N1CCN(c2cc(Cl)cc(Cl)c2)CC1 (stereo not shown) [Cpd 218, 5-[3-[4-(3,5-dichlorophenyl)piperazin-1-yl]-2-methyl-3-oxo-propyl]-5-(2-methylsulfonylethyl)imidazolidine-2,4-dione] | 20 | 272 | 2220 | 17 | 1310
2 | CC1(CCC(=O)N2CCN(c3cc(Cl)cc(Cl)c3)CC2)NC(=O)NC1=O (stereo not shown) [compound 40, 5-[3-[4-(3,5-dichlorophenyl)piperazin-1-yl]-3-oxo-propyl]-5-methyl-imidazolidine-2,4-dione] |  | 2720 | > 20000 | 234 | > 20000
3 | Cc1ccc(F)cc1N1CCN(C(=O)CCC2(C)NC(=O)NC2=O)CC1 (stereo not shown) [compound 51, 5-[3-[4-(5-fluoro-2-methyl-phenyl)piperazin-1-yl]-3-oxo-propyl]-5-methyl-imidazolidine-2,4-dione] |  | > 3660 |  | 508 | > 20000
4 | O=C1NC(=O)C(CCC(=O)N2CCN(c3cc(Cl)cc(Cl)c3)CC2)(C2CC2)N1 (stereo not shown) [compound 55, 5-cyclopropyl-5-[3-[4-(3,5-dichlorophenyl)piperazin-1-yl]-3-oxo-propyl]imidazolidine-2,4-dione] |  | > 3310 | > 20000 | 37 | > 20000
5 | O=C1NC(=O)[C@](CCC(=O)N2CCN(c3cc(Cl)cc(Cl)c3)CC2)(C2CC2)N1 [compound 173, (5S)-5-cyclopropyl-5-[3-[4-(3,5-dichlorophenyl)piperazin-1-yl]-3-oxo-propyl]imidazolidine-2,4-dione] | 22 | 3140 | > 20000 | 21 | > 20000
6 | C[C@H]1CN(C(=O)CC[C@@]2(C3CC3)NC(=O)NC2=O)CCN1c1cccc(F)c1 [compound 203, (5S)-5-cyclopropyl-5-[3-[(3S)-4-(3-fluorophenyl)-3-methyl-piperazin-1-yl]-3-oxo-propyl]imidazolidine-2,4-dione] | 46 | > 20000 | > 20000 | 26 | > 4000
7 | C[C@H]1CN(C(=O)CC[C@@]2(C3CC3)NC(=O)NC2=O)CCN1c1cc(Cl)cc(Cl)c1 [compound 204, (5S)-5-cyclopropyl-5-[3-[(3S)-4-(3,5-dichlorophenyl)-3-methyl-piperazin-1-yl]-3-oxo-propyl]imidazolidine-2,4-dione] | 16 | 3870 | > 12000 | 11 | > 20000
8 | C[C@H]1CN(C(=O)CC[C@@]2(C3CC3)NC(=O)NC2=O)CCN1c1ccc(F)c(F)c1 [compound 205, (5S)-5-cyclopropyl-5-[3-[(3S)-4-(3,4-difluorophenyl)-3-methyl-piperazin-1-yl]-3-oxo-propyl]imidazolidine-2,4-dione] | 26 | > 20000 | > 20000 | 27 | > 4000
9 | CC(CC1(CCN)NC(=O)NC1=O)C(=O)N1CCN(c2cc(Cl)cc(Cl)c2)CC1 (stereo not shown) [compound 210, 5-(2-aminoethyl)-5-[3-[4-(3,5-dichlorophenyl)piperazin-1-yl]-2-methyl-3-oxo-propyl]imidazolidine-2,4-dione] | 108 | 1440 | > 14700 | 105 | > 20000
10 | CC(CC1(C)NC(=O)NC1=O)C(=O)N1CCN(c2cccc(Cl)c2)[C@@H](C)C1 (stereo partly drawn) [compound 214, 5-[3-[(3S)-4-(3-chlorophenyl)-3-methyl-piperazin-1-yl]-2-methyl-3-oxo-propyl]-5-methyl-imidazolidine-2,4-dione] | 61 | > 4000 | > 3510 | 30 | 1230
11 | CC(CC1(C)NC(=O)NC1=O)C(=O)N1CCN(c2cccc(F)c2)[C@@H](C)C1 (stereo partly drawn) [compound 215, 5-[3-[(3S)-4-(3-fluorophenyl)-3-methyl-piperazin-1-yl]-2-methyl-3-oxo-propyl]-5-methyl-imidazolidine-2,4-dione] | 37 | > 12000 | > 4000 | 18 | 2600
12 | CC(CC1(C)NC(=O)NC1=O)C(=O)N1CCN(c2ccccc2)[C@@H](C)C1 (stereo partly drawn) [compound 217, 5-methyl-5-[2-methyl-3-[(3S)-3-methyl-4-phenyl-piperazin-1-yl]-3-oxo-propyl]imidazolidine-2,4-dione] | 59 | > 4000 | > 4000 | 49 | > 4000
13 | COCC1(CC(C)C(=O)N2CCN(c3cc(F)ccc3C)[C@@H](C)C2)NC(=O)NC1=O (stereo partly drawn) [compound 228, 5-[3-[(3S)-4-(5-fluoro-2-methyl-phenyl)-3-methyl-piperazin-1-yl]-2-methyl-3-oxo-propyl]-5-(methoxymethyl)imidazolidine-2,4-dione] | 109 | > 4000 | > 4000 |  | > 20000
14 | COCC1(CC(C)C(=O)N2CCN(c3cccc(F)c3)[C@@H](C)C2)NC(=O)NC1=O (stereo partly drawn) [compound 229, 5-[3-[(3S)-4-(3-fluorophenyl)-3-methyl-piperazin-1-yl]-2-methyl-3-oxo-propyl]-5-(methoxymethyl)imidazolidine-2,4-dione] | 31 | > 4000 | 3850 |  | 682
15 | COCC1(CC(C)C(=O)N2CCN(c3cc(F)ccc3C)CC2)NC(=O)NC1=O (stereo not shown) [compound 230, 5-[3-[4-(5-fluoro-2-methyl-phenyl)piperazin-1-yl]-2-methyl-3-oxo-propyl]-5-(methoxymethyl)imidazolidine-2,4-dione] | 24 | 207 | > 20000 |  | > 20000
16 | COCC1(CC(C)C(=O)N2CCN(c3cccc(Cl)c3C)[C@@H](C)C2)NC(=O)NC1=O (stereo partly drawn) [compound 232, 5-[3-[(3S)-4-(3-chloro-2-methyl-phenyl)-3-methyl-piperazin-1-yl]-2-methyl-3-oxo-propyl]-5-(methoxymethyl)imidazolidine-2,4-dione] | 47 | > 4000 | > 20000 |  | > 20000
17 | CC(CC1(C2CN(C(=O)OC(C)(C)C)C2)NC(=O)NC1=O)C(=O)N1CCN(c2ccc(F)c(F)c2)CC1 (stereo not shown) [compound 234, tert-butyl 3-[4-[3-[4-(3,4-difluorophenyl)piperazin-1-yl]-2-methyl-3-oxo-propyl]-2,5-dioxo-imidazolidin-4-yl]azetidine-1-carboxy late] | 28 | > 4000 | 5.6 |  | 7
18 | CC(CC1(CCNC(=O)OC(C)(C)C)NC(=O)NC1=O)C(=O)N1CCN(c2ccc(F)c(F)c2)CC1 (stereo not shown) [compound 235, tert-butyl N-[2-[4-[3-[4-(3,4-difluorophenyl)piperazin-1-yl]-2-methyl-3-oxo-propyl]-2,5-dioxo-imidazolidin-4-yl]ethyl]carbamate] | 16 | 1320 | 21.2 |  | 26
19 | CC(CC1(CN2CCOCC2)NC(=O)NC1=O)C(=O)N1CCN(c2cc(Cl)cc(Cl)c2)CC1 (stereo not shown) [compound 242, 5-[3-[4-(3,5-dichlorophenyl)piperazin-1-yl]-2-methyl-3-oxo-propyl]-5-(morpholinomethyl)imidazolidine-2,4-dione] | 66 | 2520 | > 20000 | 57 | > 20000
20 | CC(CC1(C2CNC2)NC(=O)NC1=O)C(=O)N1CCN(c2ccc(F)c(F)c2)[C@@H](C)C1 (stereo partly drawn) [compound 247, 5-(azetidin-3-yl)-5-[3-[(3S)-4-(3,4-difluorophenyl)-3-methyl-piperazin-1-yl]-2-methyl-3-oxo-propyl]imidazolidine-2,4-dione] | 95 | > 19600 | > 20000 |  | > 4000
21 | CC(=O)N1CC(C2(CC(C)C(=O)N3CCN(c4ccc(F)c(F)c4)[C@@H](C)C3)NC(=O)NC2=O)C1 (stereo partly drawn) [compound 249, 5-(1-acetylazetidin-3-yl)-5-[3-[(3S)-4-(3,4-difluorophenyl)-3-methyl-piperazin-1-yl]-2-methyl-3-oxo-propyl]imidazolidine-2,4-dione] | 36 | > 19600 | > 4000 | 34 | 1230
22 | COC(CC1(C)NC(=O)NC1=O)C(=O)N1CCN(c2cc(F)cc(Cl)c2)[C@@H](C)C1 (stereo partly drawn) [compound 295, 5-[3-[(3S)-4-(3-chloro-5-fluoro-phenyl)-3-methyl-piperazin-1-yl]-2-methoxy-3-oxo-propyl]-5-methyl-imidazolidine-2,4-dione] | 115 | > 20000 |  | 71 | 3460
23 | CC(CC1(C2CC2)NC(=O)NC1=O)C(=O)N1CCN(c2cncc(Cl)c2)[C@@H](C)C1 (stereo partly drawn) [compound 314, 5-[3-[(3S)-4-(5-chloro-3-pyridyl)-3-methyl-piperazin-1-yl]-2-methyl-3-oxo-propyl]-5-cyclopropyl-imidazolidine-2,4-dione] | 24 | > 4000 |  | 34 | > 20000
24 | C[C@H]1CN(C(=O)CCC2(c3cocn3)NC(=O)NC2=O)CCN1c1cc(F)cc(Cl)c1 (stereo partly drawn) [compound 388, 5-[3-[(3S)-4-(3-chloro-5-fluoro-phenyl)-3-methyl-piperazin-1-yl]-3-oxo-propyl]-5-oxazol-4-yl-imidazolidine-2,4-dione] | 57 | > 4000 |  | 74 | 549
